Source: US6673778B1, “Enzyme inhibitors for metabolic redirection” (The Board of Regents of the University of Nebraska, priority 1996, dated 2004)
Marks after values point to notes of the source that are not given here.

Tests used:
rat CYP3A2 = experiment: Midazolam sleep time in rats; type: in vivo; conditions: 100 μg/day i.p.; MZ 50 mg/kg i.p.
Method: (§1) Male Sprague-Dawley rats (Sasco, Omaha) weighing between 210 to 290 grams were used for all studies. The animals were exposed to 12 hour light/dark cycle and fed Purina rat chow and tap water ad libitum.
Sleep time was measured after i.p. injection of 50 mg/kg MZ (Hoffman-La Roche, Nutley, N.J.) at 0 (day 1), 24 (day 2) and […]. The volume of the injection was from 2.0 to 2.4 ml/rat. […] […] Control rats received saline only. Total volume injection was 0.1 ml in saline.

CYP3A2 = experiment: Erythromycin demethylation (ED) in liver microsomes; type: in vivo, rat; conditions: 100 μg/day i.p.
Method: Sleep time was measured after i.p. injection of 50 mg/kg MZ (Hoffman-La Roche, Nutley, N.J.) at 0 (day 1), 24 (day 2) and 48 h (day 4). The volume of the injection was from 2.0 to 2.4 ml/rat. […] The rats were treated with 0.25, 0.50 or 1.00 mg antisense ODN i.p. immediately after the animal had regained its righting reflex determined at 0 and 24 h. Control rats received saline only. Total volume injection was 0.1 ml in saline.
Microsomes were prepared, as described by Franklin and Estabrook (cited above) for determination of enzyme level and activity.
Erythromycin demethylation (ED) was used a measure of CYP3A2 enzymatic activity (Gonzalez, Pharmacol. Rev. 40:243-87, 1989). Activity was recorded as micromoles of formaldehyde per milligram of protein per minute.

CYP2B1 = experiment: PROD assay of liver microsomes (CYP2B1 enzyme activity); type: in vivo, rat; conditions: ODN alone
Method: Control rats were injected with saline only.
CYP2B1 enzyme activity was determined by pentoxyresorufin O-dealkylation (PROD) activity (Burke et al., 1985). For each microsomal sample, 1 mg protein in 1 ml 0.1 M potassium phosphate buffer, 1 ml 2 μM 5-pentoxyresorufin (Pierce, Rockford, Ill.), and 17 μl 60 mM NADPH were mixed and incubated for 10 minutes at 37° C. The mixture was then added to a 2 ml cuvette and read on a RF5000U spectrofluorophotometer (Shimadzu, Columbia, Md.), using an excitation wavelength of 530 nm and emission wavelength of 585 nm. Concentrations were calculated from a calibration curve of resorufin standards (Pierce, Rockford, Ill.). Results were recorded in nmol resorufin/mg protein/min.

CYP2B1 mRNA = experiment: Melting temperature (Tm) of ODNs used in Example 1; type: physicochemical, rat
Text: The oligo 2B1-ATG (SEQ ID NO: 16) is a 22-mer having 100% complementarity to a region containing the AUG start codon on the rat CYP2B1 mRNA (SEQ ID NO: 39, shown below Table). The oligo 2B1-NRM (SEQ ID NO: 17) has 100% complementarity to the CYP2B1 mRNA starting at base 855. The oligo 2B1-BPB (SEQ ID NO: 36) has the sequence of 2B1-NRM with a two base deletion (indicated in bold in the 2B1-NRM sequence). Each of the oligos 2B1-3MM (SEQ ID NO: 37) and 2B1-CMM (SEQ ID NO: 38) has 2 bases reversed (indicated in bold) compared to the BPB sequence. […] The table gives the melting temperature (Tm), molecular weight, and % homology to CYP2B1 mRNA of each sequence.

CYP2E1 = experiment: Microsomal PNP (p-nitrophenol hydroxylase) activity; type: in vivo, rat; conditions: liver microsomes
Method: Microsomal PNP (p-nitrophenol hydroxylase) activity was used as a measure of induction of CYP2E1, as PB is known to induce many different CYPs, including CYP2E1. CYP2E1 activity was determined by PNP activity as described in Reinke and Moyer, Drug Metab. Dispos. 13:548-52, 1985; Koop, Mol. Phannacol. 29:399404, 1986). Activity was recorded as optical density (OD) per milligram of protein per minute.

CYP2B1 protein = experiment: ELISA for CYP2B1 protein in liver microsomes; conditions: for HRP activity (CYP2B1 ELISA): liver microsomes
Method: (§2) Rats were injected intraperitoneally (i.p.) with the indicated ODNs (see Table 3) once per day for 2 days, in an amount of lmg/kg body weight per injection. Control rats were injected with saline only. Rats in the “PB” groups were injected i.p. with phenobarbital (Mallinckrodt, St. Louis) at 80 mg/kg body weight per injection, once per day for 2 days. In the groups in which PB was co-administered with ODN, injections were administered simultaneously. Total volume of injections for all groups was […]. Animals in the “2B1-NRM+PB+PRETREATMENT” group also received a dose of 1 mg/kg of 2B1-NRM oligomer (SEQ ID NO: 17) 24 hours prior to the first administration of 2B1-NRM plus PB.
Microsomes were prepared, as described by Franklin and Estabrook (Arch. Biochem. Biophys. 143:318-29, 1971), for determination of enzyme level and activity. The rats were sacrificed using ethyl ether, and livers were perfused with 12 ml of 4% saline via the portal vein and then removed from the animal. The livers were minced, homogenized in 0.25 M sucrose (Sigma) and centrifuged at 8000×G for 20 minutes at 4° C. in a Sorvall RC2-B centrifuge (Dupont). The supernatant was saved, resuspended in 0.25 M sucrose, and centrifuged at 100,000×G for 45 minutes at 4° C. in a Sorvall OTD55B ultracentrifuge (Dupont). The pellet was resuspended in 1.15% KCl (Sigma) and centrifuged at 100,000×G for 1 hour at 4° C. The final pellet was resuspended in an equal volume buffer (10 mM Tris-acetate, 1 mM EDTA, 20% glycerol; Sigma) and frozen at −80° C.
Direct measurement of CYP2B1 protein was performed by an ELISA assay, using an antibody directed to the CYP2B1 protein (Schuurs and Van Weeman, Clin Chim Acta 81(1):1-40, 1977). Fifty μg of microsomal proteins per well were plated in 100 μl 0.35% sodium bicarbonate buffer overnight on a 96 well nunc-immuno plate (InterMed, Skokie, Ill.). The microsomes were washed 3× with 1% bovine serum albumin in PBS (PBS/BSA) and incubated for 1 hr at 37° C. with 200 μl PBS/BSA. The PBS/BSA was removed, and 50 μl of CYP2B1 antibody (Oxygene, Dallas) was added and incubated for 1 hour at 37° C. The microsomes were washed 5× with saline/Tween 20™ (Sigma), and 50 μl horseradish peroxidase (HRP)-conjugated secondary antibody (Bio-Rad) was added. The microsomes were incubated for 1 hour at 37° C., then washed 5× with saline/Tween 20™ and twice with 85% saline. HRP substrate (Kirkegaard & Perry Labs, Gaithersburg, Md.) (100 μl) was added, and the absorbance at 405 nm was read continuously in a microplate reader (Molecular Devices) for 1 hour. Results were recorded as HRP activity in mOD/min.

rat CYP2B1 = experiment: Hexobarbital sleep time in rats; type: in vivo
Method: as §1, with “studies. They were housed in animal quarters at the University of Nebraska Medical Center AAALAC-approved Animal Resource Facility.” for “studies.”
as §2
Forty-eight hours following the first (non-pretreatment) injection of ODN and/or PB, the rats were injected i.p. with 100 mg/kg body weight hexobarbital (Sigma, St. Louis), in a total volume of 1 ml/kg body weight, prepared fresh daily. Sleep time, defined as the time period from when the rat is placed on its back to when it regains its righting reflex, was measured. Sleep times are given in Table 5 as the mean of each animal in the group ±standard deviation.

[1] = treatment alone (ODN 1 mg/kg or PB 80 mg/kg i.p. once per day for 2 days), hexobarbital 100 mg/kg i.p. at 48 h
[2] = ODN + PB 80 mg/kg injected simultaneously, 2 days, hexobarbital 100 mg/kg i.p.

Compound | PROD activity versus control (in words) (CYP2B1) | Tm (CYP2B1 mRNA) | PNP activity versus control (in words) (CYP2E1; treatment alone) | HRP activity (CYP2B1 ELISA) (CYP2B1 protein; treatment alone) | HRP activity versus control (in words) (CYP2B1 protein; treatment alone) | Effect on hexobarbital sleep time (in words) (rat CYP2B1; ODN alone, versus control) | Sleep time, Percent of Control (rat CYP2B1; treatment alone) | Sleep Time (min ± sd) (rat CYP2B1; [1]) | PNP activity versus control (in words) (CYP2E1; ODN + PB) | HRP activity versus PB-alone group (in words) (CYP2B1 protein; ODN + PB) | HRP activity (CYP2B1 ELISA) (CYP2B1 protein; ODN + PB) | Sleep time, Percent of Control (rat CYP2B1; ODN + PB) | Sleep Time (min ± sd) (rat CYP2B1; [2]) | Effect on hexobarbital sleep time (in words) (rat CYP2B1; ODN + PB, versus PB group) | further results
REV3A2/PMO: PMO reverse control, SEQ ID NO: 43, 5′-UACCUCGACGAAAGUCGAGAGU-3′ (all phosphorodiamidate morpholino (PMO), T or U not given here) |  |  |  |  |  |  |  |  |  |  |  |  |  |  | MZ ST (midazolam sleep time) (rat CYP3A2): 20.3 ± 1.3 min; ED (erythromycin demethylase activity) (CYP3A2): 99 μmol HCOH/mg/min
2B1-3MM (antisense AAAGAAGAGAGAGCAGGGGA; chemistry not given here) | no change from control | 49.8 °C | no significant differences in PNP activities from control values | 9.2 ± 5.0 mOD/min | no change in HRP activity over control microsomes | slightly lengthened sleep time over the control | 132.4% of Control | 31.0 ± 9.6 min |  |  |  |  |  |  | 
2B1-ATG (antisense GGAGCAAGATACTGGGCTCCAT; chemistry not given here) | no change from control | 68.0 °C | no significant differences in PNP activities from control values | 13.2 ± 4.4 mOD/min | no change in HRP activity over control microsomes | did not significantly alter sleep time over control | 87.6% of Control | 20.5 ± 5.3 min | significant increases in PNP activities over that of control | a significant decrease in HRP activity over the PB-alone group | 12.9 ± 5.0 mOD/min | 82.5% of Control | 19.3 ± 4.4^b min | sleep time increased significantly over that of the PB group | 
2B1-NRM (antisense AAAGAAGAGAGAGAGCAGGGAG; chemistry not given here) | no change from control | 50.6 °C | no significant differences in PNP activities from control values | 13.8 ± 5.6 mOD/min | no change in HRP activity over control microsomes | no effect on sleep time compared to control | 98.2% of Control | 23.0 ± 3.2 min | significant increases in PNP activities over that of control | a decrease in HRP activity over that of the PB-alone treatment group | 17.9 ± 4.6 mOD/min | 57.7% of Control | 13.5 ± 0.9 min | no observable antisense effect | PNP activity versus control (in words) (CYP2E1; ODN + PB + pretreatment): significant increases in PNP activities over that of control; HRP activity versus PB-alone group (in words) (CYP2B1 protein; ODN + PB + pretreatment): a decrease in HRP activity over that of the PB-alone treatment group; HRP activity (CYP2B1 ELISA) (CYP2B1 protein; ODN + PB/Pretreatment): 18.7 ± 0.3 mOD/min; Effect on hexobarbital sleep time (in words) (rat CYP2B1; ODN pretreatment + PB): essentially the same as without pretreatment; Sleep time, Percent of Control (rat CYP2B1; ODN pretreatment + PB): 56.8% of Control; Sleep Time (min ± sd) (rat CYP2B1; ODN pretreatment one day before ODN + PB, 2 days, hexobarbital 100 mg/kg i.p.): 13.3 ± 3.0 min
2B1-CMM (antisense AAAGAAGAGAAGGCAGGGAG; chemistry not given here) | no change from control | 49.5 °C | no significant differences in PNP activities from control values | 10.1 ± 3.3 mOD/min | no change in HRP activity over control microsomes | did not significantly alter HB sleep time from the control | 98.2% of Control | 23.0 ± 5.3 min |  |  |  |  |  |  | 
CCC1(c2ccccc2)C(=O)NC(=O)NC1=O [Phenobarbital (PB), phenobarbital, reference compound] |  |  | significant increases in PNP activities over that of control | 22.5 ± 4.2 mOD/min | significantly greater than the activity of microsomes from control rats |  | 48.7% of Control | 11.4 ± 4.5^a min |  |  |  |  |  |  | Sleep Time (min ± sd) (rat CYP2B1; treatment alone (ODN 1 mg/kg or PB 80 mg/kg i.p. once per day for 2 days), hexobarbital 100 mg/kg i.p. at 48 h, listed as PB): about 11.4 min
